Measured values: ChEMBL document CHEMBL3638960, “4,5-dihydro-oxazol-2yl derivatives” (2014)

Biological target: Trace amine-associated receptor 1 (Mus musculus, UniProt Q923Y8)
Assay: Binding assay: Binding assay was performed at 4 C. in a final volume of 1 ml, and with an incubation time of 30 min. The radioligand [3H]-rac-2-(1,2,3,4-tetrahydro-1-naphthyl)-2-imidazoline was used at a concentration equal to the calculated Kd value of 60 nM to give a bound at around 0.1% of the total added radioligand concentration, and a specific binding which represented approximately 70-80% of the total binding. Non-specific binding was defined as the amount of [3H]-rac-2-(1,2,3,4-tetrahydro-1-naphthyl)-2-imidazoline bound in the presence of the appropriate unlabelled ligand (10 μM). Competing ligands were tested in a wide range of concentrations ([…]).

Chain of Trace amine-associated receptor 1 (Q923Y8 whole entry): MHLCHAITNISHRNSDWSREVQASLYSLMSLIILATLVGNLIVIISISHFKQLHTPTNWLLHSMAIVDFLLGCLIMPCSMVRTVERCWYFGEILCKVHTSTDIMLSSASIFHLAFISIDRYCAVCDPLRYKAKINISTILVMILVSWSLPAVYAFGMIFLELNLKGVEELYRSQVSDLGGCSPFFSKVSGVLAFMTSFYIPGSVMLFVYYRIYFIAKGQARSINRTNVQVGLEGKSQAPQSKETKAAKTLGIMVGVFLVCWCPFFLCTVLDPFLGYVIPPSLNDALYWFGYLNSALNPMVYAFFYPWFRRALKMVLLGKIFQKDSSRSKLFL

Ki: 0.5 nM
Structure (SMILES): NC1=N[C@@H](CCC2(c3ccccc3)CC2)CO1
